{"source": "patent US20250186319A1", "about": "“ANAPLEROTIC COMPOSITIONS AND USES THEREOF” (EXCELLA BIOSCIENTIFIC LTD, priority 2021, published 2025)", "key": {"P. acnes": {"system": "P. acnes", "assay": "MIC/MBC against P. acnes by microdilution method", "type": "cell-based", "conditions": "for MBC: TriAza batches and their soaps; for MIC: Cutibacterium acnes", "from_the_text": "TriAza was designed as a pro-drug of azelaic acid, a known antibacterial agent, for the treatment of skin disorders associated with pathogenic propagation of bacteria. For example, the development of Acne vulgaris is tightly associated with extensive accumulation of P. acnes in the sebaceous gland, a milieu of the disease. To determine the antibacterial activity of TriAza against P. acnes, we tested the minimal bactericidal concentration (MBC) of TriAza. The effect of TriAza was compared to the MBC of azelaic acid and benzoyl peroxide (BPO), two main competitors used in the treatment of acne.\nTo compare the antimicrobial activities of various batches of TriAza we determined MIC of number of batches that were prepared with non-principal modifications. Selected batches were labeled as TriAza −3, TriAza −6, TriAza −7 and TriAza −19 and supplied to the growth medium of P. acnes. A, minimal inhibitory concentration of the batches was monitored and compared to each other. […] For further analysis, batch TriAza −19 was chosen as a batch containing the minimal amount of pelargonic acid.\nSince TriAza is designed for marketing as a soap, we decided to define an antibacterial activity of its soap. […] It should be stressed that despite the decreased activity of TriAza soap it is still higher than that of azelaic acid (Table 1 and 2).\nExample 12: Microbiome balance effect: Selection of methods for QC-quality control-Functional Potency. Testing minimal inhibitory concentration (MIC) to P. acnes was executed by microdilution method. TriAza based biocontrol, microbial preservation. P. acnes after double passage on Chocolate plates (Novamed) were grown bacteria in anaerobic conditions at 37° C. for 1-2 days. The bacteria were Gram stained and the proper morphology of the bacteria was assured. Then, bacteria were resuspended in Thioglycolate medium (HyLabs) at concentration of 0.02 O.D.600. Meanwhile, ELISA plates containing at the first raw 200 μl of undiluted tested material were prepared. The rest wells were filled with 100 μl of Thioglycolate medium and 11 serial […] by transferring 100 μl of undiluted material was performed. Once the ELISA plate was ready, 100 μl of prepared bacterial culture was added. Bacteria alone and medium w/o bacteria were used as standard controls. The plates were incubated in anaerobic conditions at 37° C. for 2 days. Minimal inhibitory concentration was determined visually and spectrophotometrically, while minimal bactericidal concentration was determined after plating of the bacteria on solid medium (Chocolate plates). On the plates bacteria were incubated in anaerobic conditions at 37° C. for 2 days and the number of appearing colonies were counted manually. Specification for positive functional potency for batch acceptance for the TriAza batches tested are selected in range of antimicrobial activity-MIC between 0,25-1 mM.\nP. acnes after double passage on Chocolate plates (Novamed) were grown in anaerobic conditions at 37° C. for 1-2 days. The bacteria were Gram stained and the proper morphology of the bacteria was assured. Then, bacteria were resuspend in Thioglycolate medium\n(HyLabs) at concentration of 0.02 O.D.600. Meanwhile, ELISA plates containing at the first raw undiluted tested material were prepared. The rest wells were filled with 100 μl of Thioglycolate medium and 11 serial ½ dilutions by transferring 100 ul of undiluted material was performed. Once the ELISA plate was ready, 100 ul of prepared bacterial culture was added. Bacteria alone and medium w/o bacteria were used as standard controls. The plates were incubated in anaerobic conditions at 37° C. for 2 days. Minimal inhibitory concentration was determined visually and spectrophotometrically, while minimal bactericidal concentration was determined after plating of the bacteria on solid medium (Chocolate plates). […]"}, "[1]": {"system": "Candida albicans (C. albicans)", "assay": "MIC/MBC against C. albicans", "type": "cell-based", "from_the_text": "(§1) For this purpose, we selected a few major skin pathogens and tested their sensitivity to TriAza. We chose Staphylococcus aureus (S. aureus) and Candida albicans (C. albicans), representing bacterial and fungal genera, respectively. Both organisms' express lipase. The bacteria and fungi were exposed to various concentrations of TriAza −19 and its sodium salt, and both the MICs and MBCs of the agents were statistically determined. […] The slight difference in MICs of TriAza against the tested organisms can stem from the difference in their lipase activity."}, "[2]": {"system": "Staphylococcus aureus (S. aureus)", "assay": "MIC/MBC against S. aureus", "type": "cell-based", "from_the_text": "as §1"}, "S. aureus": {"system": "S. aureus", "assay": "S. aureus spiked contamination screen of natural preservatives in chocolate spread", "type": "cell-based", "set-up": "unit not given here", "from_the_text": "In addition, even MCT, and derivatives are screened as useful natural preservatives of the composition, GML-glycerol monolaurate is selected as an adjunctive multifunctional natural preservative to MOCL based composition."}, "mammalian esterase": {"system": "mammalian esterase", "assay": "Specificity: hydrolysis of TriAza by esterase", "type": "biochemical", "conditions": "equally active enzyme amounts, fixed TriAza concentration", "from_the_text": "(§2) Pure pro-drug activity of designed molecules implies their high specificity towards the target enzyme. TriAza represents the glycerol ester of a specific fatty acid that might be recognized by a mammalian esterase or other triglyceride-utilizing lipase. To establish specificity of bacterial lipase to TriAza, the lipase activity from P. cepacia to that of mammalian esterase and phospholipase A2 were compared. […] The extents of enzyme activities were registered according to the level of generation of azelaic acid."}, "[3]": {"assay": "Subjective evaluation of skin aged appearance in volunteers", "type": "in vivo, human", "conditions": "scale −3 to 3; three volunteers; after month of use", "description": "Method of subjective qualitative evaluation of skin whitening and smoothening at the test site and improvement in fine lines is evaluated subjectively by the investigator and/or by the subjects in accordance with the following scoring pattern:−3=marked deterioration;−2=moderate, visibly uneven deterioration;−1=slight deterioration; 0=no perceptible change or improvement; 1=slight change or improvement; 2=moderate change or improvement (whitening; perceptible and visible change, with less than 50% lightening of skin color); 3=marked or improvement remarkable change or improvement (whitening; very visible change with even and uniform skin whitening covering more than 80% of the contact area). Three study volunteers used TriAza for reduction of skin “aged appearance”-all three after month of use reported 2-3 scale of appearance improvement."}, "phospholipase A2": {"system": "phospholipase A2", "assay": "Specificity: hydrolysis of TriAza by phospholipase A2", "type": "biochemical", "conditions": "equally active enzyme amounts, fixed TriAza concentration", "from_the_text": "as §2"}, "[4]": {"system": "P. acnes-associated lipase", "assay": "P. acnes-associated lipase activity in live culture, release of azelaic acid (TLC)", "type": "cell-based", "conditions": "day 1 and day 5", "description": "The activity of C. acnes-associated and P. acnes-associated lipase was tested in the presence of triolein (a trigger of lipase activity). Bacteria was grown for 4 days in liquid medium. P. acnes after double passage on Chocolate plates (Novamed) were grown bacteria in anaerobic conditions at 37° C. for 1-2 days. The bacteria were Gram stained, and the proper morphology of the bacteria was assured. Then, 1 O.D. 600 bacteria were resuspended in 1 ml of Thioglycolate medium (HyLabs) containing 50 μl triolein and grown in anaerobic conditions at 37° C. for 4 days. Following this incubation, 100 μl of emulsified substrate was added to the culture that was further maintained at 37° C. for overnight. Afterwards, the supernatant was separated from the bacteria by 1 min centrifugation at 10000 rpm and subjected to lipid extraction using clorophorm: methanol (2:1). The lipids after nitrogen evaporation and resuspension in clorophorm: methanol (2:1) were separated on silica TLC plates in a development solution of clorophorm: methanol: water (65:25:4), and visualized with BromCresol Green (Sigma)."}, "lipase from P. cepacia": {"molecular_target": "T1, lipase from P. cepacia (Burkholderia cepacia, UniProt P22088)", "T1 construct": "purchased", "T1 sequence (P22088 45-364)": "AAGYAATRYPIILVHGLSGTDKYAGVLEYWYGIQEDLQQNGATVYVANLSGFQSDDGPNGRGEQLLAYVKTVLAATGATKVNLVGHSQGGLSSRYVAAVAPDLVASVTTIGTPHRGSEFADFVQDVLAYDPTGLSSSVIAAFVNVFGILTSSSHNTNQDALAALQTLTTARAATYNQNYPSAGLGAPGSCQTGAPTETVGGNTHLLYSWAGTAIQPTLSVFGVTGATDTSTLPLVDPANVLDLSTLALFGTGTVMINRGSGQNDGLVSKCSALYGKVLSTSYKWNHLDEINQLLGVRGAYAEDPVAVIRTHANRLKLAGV", "assay": "Bacterial lipase hydrolysis of TriAza, azelaic acid production by TLC", "type": "biochemical", "conditions": "increasing enzyme amounts, 37° C.", "description": "To determine the affinity of a bacterial lipase to the active ingredient according to the embodiments of the invention, the ability of the lipase to utilize TriAza as a substrate was tested. For this purpose, the commercially available lipase from P. cepacian was used. Increasing amounts of the enzyme were mixed with a fixed concentration of the substrate, and incubated for a few hours at 37° C. The enzymatic activity was monitored by TLC, by registering the production of azelaic acid.\nas §2"}, "[5]": {"conditions": "TriAza value is batch #5, MIC of L-PABS equals its MBC, read-out: MIC"}}, "note": "Like-named read-outs stand apart in the source and are kept apart here.", "data": [{"smiles": "O=C(O)CCCCCCCC(=O)OCC(COC(=O)CCCCCCCC(=O)O)OC(=O)CCCCCCCC(=O)O", "note": "[TriAza-3]", "values": [{"measurement": "MBC", "setting": "P. acnes", "value": 1000, "unit": "µg/mL"}]}, {"smiles": "O=C(O)CCCCCCCC(=O)O", "note": "[Azelaic acid, reference compound]", "values": [{"measurement": "MIC", "setting": "P. acnes; [5]", "value": 3750, "unit": "µg/mL"}]}, {"smiles": "O=C(O)CCCCCCCC(=O)OCC(COC(=O)CCCCCCCC(=O)O)OC(=O)CCCCCCCC(=O)O", "note": "[TriAza-19]", "values": [{"measurement": "MBC", "setting": "P. acnes", "value": 1000, "unit": "µg/mL"}, {"measurement": "MBC", "setting": "[1]", "value": 24000, "unit": "µg/mL"}, {"measurement": "MIC", "setting": "[1]", "value": 20000, "unit": "µg/mL"}, {"measurement": "MBC", "setting": "[2]", "value": 10000, "unit": "µg/mL"}, {"measurement": "MIC", "setting": "[2]", "value": 5000, "unit": "µg/mL"}]}, {"smiles": "O=C(O)CCCCCCCC(=O)OCC(COC(=O)CCCCCCCC(=O)O)OC(=O)CCCCCCCC(=O)O", "note": "[TriAza-7]", "values": [{"measurement": "MBC", "setting": "P. acnes", "value": 2000, "unit": "µg/mL"}]}, {"smiles": "O=C(O)CCCCCCCC(=O)OCC(COC(=O)CCCCCCCC(=O)O)OC(=O)CCCCCCCC(=O)O", "note": "[TriAza-6]", "values": [{"measurement": "MBC", "setting": "P. acnes", "value": 2800, "unit": "µg/mL"}]}, {"smiles": "O=C(OOC(=O)c1ccccc1)c1ccccc1", "note": "[BPO, benzoyl peroxide, reference compound]", "values": [{"measurement": "MIC", "setting": "P. acnes; [5]", "value": 500, "unit": "µg/mL"}]}, {"smiles": "CCCCCCCCC(=O)OCC(COC(=O)CCCCCCCC)OC(=O)CCCCCCCC", "note": "[tripelargonin]", "values": [{"measurement": "MIC", "setting": "S. aureus", "value": 23}]}, {"smiles": "O=C(O)CCCCCCCC(=O)OCC(COC(=O)CCCCCCCC(=O)O)OC(=O)CCCCCCCC(=O)O", "note": "[TriAza, Glycerol triazelate]", "values": [{"measurement": "generation of azelaic acid by esterase", "setting": "mammalian esterase", "value": "neither esterase nor phospholipase A2 could produce azelaic acid"}, {"measurement": "appearance improvement score", "setting": "[3]", "value": "2-3"}, {"measurement": "generation of azelaic acid by phospholipase A2", "setting": "phospholipase A2", "value": "neither esterase nor phospholipase A2 could produce azelaic acid"}, {"measurement": "MIC", "setting": "P. acnes; [5]", "value": 1950, "unit": "µg/mL"}, {"measurement": "MIC", "setting": "P. acnes; batch VA4-1, with surfactant or emulsifier, read-out: MIC bacteriostatic activity, concentration sufficient to stop growth", "value": 1000, "unit": "µM"}, {"measurement": "activity of TriAza relative to Azelaic acid", "setting": "P. acnes; stronger than Azelaic acid", "value": 2, "unit": "fold"}, {"measurement": "time-dependent release of azelaic acid", "setting": "[4]", "value": "maximum lipase hydrolysis on day 5"}, {"measurement": "utilization as substrate, accumulation of azelaic acid", "setting": "lipase from P. cepacia", "value": "could be utilized as a substrate for bacterial lipase activity"}]}]}
